In patent US20220187282A1, “CARDIOMYOCYTE PROLIFERATION” (The Council of the Queensland Institute of Medical Research, priority 2019, published 2022):
Where two headings read alike, the source gives them in different places.

Assays:
Type in all cases: biochemical
kinases [1] = target: kinases (Homo sapiens, UniProt O75116); conditions: ROCK2 FRET-Z-Lyte SP; Test Conc(μM):ATP Conc(μM) 1:50
kinases [2] = target: kinases (Homo sapiens, UniProt O95819); conditions: MAP4K4 (HGK) FRET-Z-Lyte SP; Test Conc(μM):ATP Conc(μM) 1:10
kinases (Homo sapiens, UniProt O95819), sequence (O95819 whole entry): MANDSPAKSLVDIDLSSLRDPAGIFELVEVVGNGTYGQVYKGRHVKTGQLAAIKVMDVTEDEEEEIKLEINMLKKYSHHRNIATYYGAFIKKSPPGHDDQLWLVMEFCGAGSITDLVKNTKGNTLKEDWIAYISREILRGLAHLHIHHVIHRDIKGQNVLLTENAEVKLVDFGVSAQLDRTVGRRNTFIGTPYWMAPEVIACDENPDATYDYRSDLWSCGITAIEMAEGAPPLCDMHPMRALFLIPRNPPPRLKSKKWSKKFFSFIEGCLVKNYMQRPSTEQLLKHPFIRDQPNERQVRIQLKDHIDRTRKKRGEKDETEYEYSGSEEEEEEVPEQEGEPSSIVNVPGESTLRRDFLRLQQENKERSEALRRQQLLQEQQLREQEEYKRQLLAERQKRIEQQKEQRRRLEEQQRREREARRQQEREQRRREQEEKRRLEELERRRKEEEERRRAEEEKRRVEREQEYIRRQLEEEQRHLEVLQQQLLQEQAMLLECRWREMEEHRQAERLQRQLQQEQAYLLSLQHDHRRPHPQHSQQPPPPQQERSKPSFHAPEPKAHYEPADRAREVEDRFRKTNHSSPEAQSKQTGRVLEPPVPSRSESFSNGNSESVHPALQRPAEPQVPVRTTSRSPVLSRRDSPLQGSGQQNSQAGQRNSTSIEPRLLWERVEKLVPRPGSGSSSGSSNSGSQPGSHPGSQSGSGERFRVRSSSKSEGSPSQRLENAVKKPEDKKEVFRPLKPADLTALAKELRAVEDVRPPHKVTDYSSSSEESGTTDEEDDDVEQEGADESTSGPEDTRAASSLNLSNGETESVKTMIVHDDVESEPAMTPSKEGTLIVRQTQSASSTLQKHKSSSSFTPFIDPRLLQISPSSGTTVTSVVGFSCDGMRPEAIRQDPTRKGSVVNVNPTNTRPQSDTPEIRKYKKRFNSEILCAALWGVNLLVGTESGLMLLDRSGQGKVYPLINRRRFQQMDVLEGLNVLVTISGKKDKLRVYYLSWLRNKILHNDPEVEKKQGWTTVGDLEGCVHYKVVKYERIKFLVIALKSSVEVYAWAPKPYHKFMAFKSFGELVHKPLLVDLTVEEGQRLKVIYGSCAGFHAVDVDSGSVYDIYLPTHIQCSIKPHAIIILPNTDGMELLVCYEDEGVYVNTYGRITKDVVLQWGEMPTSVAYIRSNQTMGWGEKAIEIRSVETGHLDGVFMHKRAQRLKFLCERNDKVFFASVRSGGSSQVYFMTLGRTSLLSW

kinases [3] = target: kinases (Homo sapiens, UniProt P37173); conditions: TGFBR2 FRET-Lantha SP; Test Conc(μM) 1
kinases [4] = target: kinases (Homo sapiens, UniProt O75676); conditions: RPS6KA4 (MSK2) FRET-Z-Lyte SP; Test Conc(μM):ATP Conc(μM) 1:10
kinases [5] = target: kinases (Homo sapiens, UniProt Q8N4C8); conditions: MINK1 FRET-Z-Lyte SP; Test Conc(μM):ATP Conc(μM) 1:25
kinases [6] = target: kinases (Homo sapiens, UniProt Q9UKI8); conditions: TLK1 FRET-Lantha SP; Test Conc(μM) 1
kinases [7] = target: kinases (Homo sapiens, UniProt Q9HC98); conditions: NEK6 FRET-Z-Lyte SP; Test Conc(μM):ATP Conc(μM) 1:100
kinases (Homo sapiens, UniProt Q9HC98), sequence (Q9HC98 whole entry): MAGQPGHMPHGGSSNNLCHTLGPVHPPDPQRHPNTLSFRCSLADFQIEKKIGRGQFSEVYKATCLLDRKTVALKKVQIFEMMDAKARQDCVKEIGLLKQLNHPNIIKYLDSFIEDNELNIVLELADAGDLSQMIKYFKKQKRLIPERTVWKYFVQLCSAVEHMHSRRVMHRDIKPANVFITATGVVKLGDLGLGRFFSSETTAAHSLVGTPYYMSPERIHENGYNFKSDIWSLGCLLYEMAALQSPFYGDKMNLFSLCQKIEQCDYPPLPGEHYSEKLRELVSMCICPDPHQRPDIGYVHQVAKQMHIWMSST

kinases [8] = target: kinases (Homo sapiens, UniProt Q9H0K1); conditions: SNF1LK2 FRET-Z-Lyte SP; Test Conc(μM):ATP Conc(μM) 1:50
kinases [9] = target: kinases (Homo sapiens, UniProt P23443); conditions: RPS6KB1 (p70S6K) Z-Lyte SP; Test Conc(μM):ATP Conc(μM) 1:10
kinases (Homo sapiens, UniProt P23443), sequence (P23443 whole entry): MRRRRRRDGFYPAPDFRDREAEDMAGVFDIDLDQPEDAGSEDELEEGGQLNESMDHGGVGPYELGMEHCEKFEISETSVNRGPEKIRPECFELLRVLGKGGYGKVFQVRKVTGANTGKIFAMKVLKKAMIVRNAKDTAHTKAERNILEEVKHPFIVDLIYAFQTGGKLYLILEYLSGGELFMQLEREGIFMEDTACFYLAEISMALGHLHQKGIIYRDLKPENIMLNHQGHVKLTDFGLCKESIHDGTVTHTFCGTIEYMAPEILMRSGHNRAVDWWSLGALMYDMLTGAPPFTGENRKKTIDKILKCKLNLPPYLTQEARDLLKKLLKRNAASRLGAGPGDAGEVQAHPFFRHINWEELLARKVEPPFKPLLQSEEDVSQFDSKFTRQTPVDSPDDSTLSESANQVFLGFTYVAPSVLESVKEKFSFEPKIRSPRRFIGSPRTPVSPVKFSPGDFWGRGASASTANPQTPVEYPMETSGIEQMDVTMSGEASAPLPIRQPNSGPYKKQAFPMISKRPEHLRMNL

kinases [10] = target: kinases (Homo sapiens, UniProt P17252); conditions: PRKCA (PKC alpha) Z-Lyte SP; Test Conc(μM):ATP Conc(μM) 1:25
kinases [11] = target: kinases (Homo sapiens, UniProt Q13163); conditions: MAP2K5 (MEK5) FRET-Lantha SP; Test Conc(μM) 1
kinases [12] = target: kinases (Homo sapiens, UniProt Q9H093); conditions: NUAK2 FRET-Lantha SP; Test Conc(μM) 1
kinases [13] = target: kinases (Homo sapiens, UniProt P16234); conditions: PDGFRA *Mn* FRET-Z-Lyte SP; Test Conc(μM):ATP Conc(μM) 1:10
kinases [14] = target: kinases (Homo sapiens, UniProt Q6VAB6); conditions: KSR2 FRET-Z-Lyte SP; Test Conc(μM):ATP Conc(μM) 1:10
kinases [15] = target: kinases (Homo sapiens, UniProt Q13164); conditions: MAPK7 (ERK5) FRET-Z-Lyte SP; Test Conc(μM):ATP Conc(μM) 1:10
kinases [16] = target: kinases (Homo sapiens, UniProt Q16816); conditions: PHKG1 FRET-Z-Lyte SP; Test Conc(μM):ATP Conc(μM) 1:75
kinases (Homo sapiens, UniProt Q16816), sequence (Q16816 whole entry): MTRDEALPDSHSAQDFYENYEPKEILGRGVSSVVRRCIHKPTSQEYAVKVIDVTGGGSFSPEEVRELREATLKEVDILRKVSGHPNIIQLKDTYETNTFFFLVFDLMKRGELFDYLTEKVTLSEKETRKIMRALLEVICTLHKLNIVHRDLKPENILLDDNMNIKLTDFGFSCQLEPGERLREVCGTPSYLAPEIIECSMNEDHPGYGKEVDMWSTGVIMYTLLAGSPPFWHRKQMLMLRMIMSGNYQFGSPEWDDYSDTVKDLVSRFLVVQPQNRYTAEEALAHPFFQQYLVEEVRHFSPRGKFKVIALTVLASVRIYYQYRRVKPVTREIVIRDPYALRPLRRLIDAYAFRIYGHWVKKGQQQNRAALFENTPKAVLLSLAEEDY

kinases [17] = target: kinases (Homo sapiens, UniProt Q6PHR2); conditions: ULK3 FRET-Lantha SP; Test Conc(μM) 1
kinases [18] = target: kinases (Homo sapiens, UniProt P31749); conditions: AKT1 (PKB alpha) Z-Lyte SP; Test Conc(μM):ATP Conc(μM) 1:75
kinases [19] = target: kinases (Homo sapiens, UniProt Q13464); conditions: ROCK1 FRET-Z-Lyte SP; Test Conc(μM):ATP Conc(μM) 1:5
kinases [20] = target: kinases (Homo sapiens, UniProt P53779)
kinases (Homo sapiens, UniProt P53779), sequence (P53779 whole entry): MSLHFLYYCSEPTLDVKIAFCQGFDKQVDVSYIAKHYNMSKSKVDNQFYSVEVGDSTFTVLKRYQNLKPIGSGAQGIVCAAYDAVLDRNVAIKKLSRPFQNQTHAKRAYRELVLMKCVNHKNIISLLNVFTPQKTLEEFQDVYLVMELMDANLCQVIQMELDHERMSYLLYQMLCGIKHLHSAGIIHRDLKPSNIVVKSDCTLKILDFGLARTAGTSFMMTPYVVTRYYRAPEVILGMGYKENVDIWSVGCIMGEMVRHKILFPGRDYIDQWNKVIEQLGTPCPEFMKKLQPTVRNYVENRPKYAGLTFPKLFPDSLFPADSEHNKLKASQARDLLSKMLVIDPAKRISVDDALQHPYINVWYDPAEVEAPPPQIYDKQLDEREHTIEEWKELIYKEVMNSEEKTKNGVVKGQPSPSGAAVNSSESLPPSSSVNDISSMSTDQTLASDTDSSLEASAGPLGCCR

kinases [21] = target: kinases (Homo sapiens, UniProt Q13882); conditions: PTK6 (Brk) *Mn* FRET-Z-Lyte SP; Test Conc(μM):ATP Conc(μM) 1:75
kinases [22] = target: kinases (Homo sapiens, UniProt Q00526); conditions: CDK3/cyclin E1 FRET-Lantha SP; Test Conc(μM) 1
kinases [23] = target: kinases (Homo sapiens, UniProt P37023); conditions: ACVRL1 (ALK1) FRET-Lantha SP; Test Conc(μM) 1
kinases [24] = target: kinases (Homo sapiens, UniProt O14976); conditions: GAK FRET-Lantha SP; Test Conc(μM) 1
kinases [25] = target: kinases (Homo sapiens, UniProt Q08881); conditions: ITK FRET-Z-Lyte SP; Test Conc(μM):ATP Conc(μM) 1:5
kinases (Homo sapiens, UniProt Q08881), sequence (Q08881 whole entry): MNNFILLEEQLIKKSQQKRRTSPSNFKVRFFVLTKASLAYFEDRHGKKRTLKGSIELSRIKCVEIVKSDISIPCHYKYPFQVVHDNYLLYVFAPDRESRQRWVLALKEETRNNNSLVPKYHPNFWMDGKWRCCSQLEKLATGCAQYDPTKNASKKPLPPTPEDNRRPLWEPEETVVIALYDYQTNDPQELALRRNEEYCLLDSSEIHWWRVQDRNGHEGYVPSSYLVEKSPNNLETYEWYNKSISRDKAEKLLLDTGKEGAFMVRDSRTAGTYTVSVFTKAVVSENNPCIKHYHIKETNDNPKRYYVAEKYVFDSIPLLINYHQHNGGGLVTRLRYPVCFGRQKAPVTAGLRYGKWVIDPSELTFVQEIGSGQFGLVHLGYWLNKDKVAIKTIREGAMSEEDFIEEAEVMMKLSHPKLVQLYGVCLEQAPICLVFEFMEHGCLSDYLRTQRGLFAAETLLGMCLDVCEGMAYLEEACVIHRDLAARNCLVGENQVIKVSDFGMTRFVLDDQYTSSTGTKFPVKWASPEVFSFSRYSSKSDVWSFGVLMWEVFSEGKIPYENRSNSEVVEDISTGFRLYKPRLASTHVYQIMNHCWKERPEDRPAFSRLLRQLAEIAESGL

kinases [26] = target: kinases (Homo sapiens, UniProt Q8IU85); conditions: CAMK1D FRET-Z-Lyte SP; Test Conc(μM):ATP Conc(μM) 1:25
kinases (Homo sapiens, UniProt Q8IU85), sequence (Q8IU85 whole entry): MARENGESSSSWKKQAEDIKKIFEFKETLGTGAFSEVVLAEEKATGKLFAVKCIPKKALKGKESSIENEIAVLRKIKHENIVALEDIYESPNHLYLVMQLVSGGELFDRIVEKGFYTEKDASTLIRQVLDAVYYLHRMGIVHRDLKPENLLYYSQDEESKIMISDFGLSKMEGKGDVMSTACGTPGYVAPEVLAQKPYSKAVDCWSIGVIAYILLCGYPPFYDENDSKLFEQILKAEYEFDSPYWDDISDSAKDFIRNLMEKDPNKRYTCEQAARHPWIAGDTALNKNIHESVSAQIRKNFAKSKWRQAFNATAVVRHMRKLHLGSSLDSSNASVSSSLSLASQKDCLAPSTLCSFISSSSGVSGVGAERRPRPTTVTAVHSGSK

kinases [27] = target: kinases (Homo sapiens, UniProt P50750)
kinases (Homo sapiens, UniProt P50750), sequence (P50750 whole entry): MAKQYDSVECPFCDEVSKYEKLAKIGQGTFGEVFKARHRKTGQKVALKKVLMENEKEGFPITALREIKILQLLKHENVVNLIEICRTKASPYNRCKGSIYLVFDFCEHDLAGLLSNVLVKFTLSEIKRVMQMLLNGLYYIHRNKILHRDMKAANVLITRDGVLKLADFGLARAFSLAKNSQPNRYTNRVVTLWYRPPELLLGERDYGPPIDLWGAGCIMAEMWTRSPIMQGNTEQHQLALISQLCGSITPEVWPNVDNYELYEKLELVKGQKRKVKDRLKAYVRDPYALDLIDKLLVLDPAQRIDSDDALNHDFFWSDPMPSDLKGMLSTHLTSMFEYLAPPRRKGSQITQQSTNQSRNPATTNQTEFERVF

kinases [28] = target: kinases (Homo sapiens, UniProt Q9Y616); conditions: IRAK3 FRET-Lantha SP; Test Conc(μM) 1
[29] = MAPK10 (JNK3) FRET-Lantha SP, Test Conc(μM) 1
[30] = MAPK10 (JNK3)Cascade Z-Lyte SP, Test Conc(μM):ATP Conc(μM) 1:100
[31] = CDK9 (Inactive) FRET-Lantha SP, Test Conc(μM) 1
[32] = CDK9/cyclin K FRET-Lantha SP, Test Conc(μM) 1
[33] = CDK9/cyclin T1 FRET-Adapta SP, Test Conc(μM):ATP Conc(μM) 1:25

Compound | Mean Inhib (%) (kinases [1]) | Mean Inhib (%) (kinases [2]) | Mean Inhib (%) (kinases [3]) | Mean Inhib (%) (kinases [4]) | Mean Inhib (%) (kinases [5]) | Mean Inhib (%) (kinases [6]) | Mean Inhib (%) (kinases [7]) | Mean Inhib (%) (kinases [8]) | Mean Inhib (%) (kinases [9]) | Mean Inhib (%) (kinases [10]) | Mean Inhib (%) (kinases [11]) | Mean Inhib (%) (kinases [12]) | Mean Inhib (%) (kinases [13]) | Mean Inhib (%) (kinases [14]) | Mean Inhib (%) (kinases [15]) | Mean Inhib (%) (kinases [16]) | Mean Inhib (%) (kinases [17]) | Mean Inhib (%) (kinases [18]) | Mean Inhib (%) (kinases [19]) | Mean Inhib (%) (kinases [20]; [29]) | further results
Cc1ccc(NC(=O)c2ccnc(N3CCOCC3)c2)cc1Nc1ccnc(N2CC(C)OC(C)C2)n1 (centres unmarked) [compound 3] | −2.1% | 16.9% | −3.5% | −0.8% | 1.6% | −4.3% | −4.0% | 15.9% | 4.7% | 23.3% | −1.6% | 14.1% | 2.4% | 3.9% | 0.2% | −3.8% | −2.1% | 5.2% | 45.9% | −0.2% | Mean Inhib (%) (kinases [20]; [30]): 10.6%; Mean Inhib (%) (kinases [21]): 3.5%; Mean Inhib (%) (kinases [22]): 6.0%; Mean Inhib (%) (kinases [23]): 7.2%; Mean Inhib (%) (kinases [24]): 29.0%; Mean Inhib (%) (kinases [25]): 6.1%; Mean Inhib (%) (kinases [26]): 0.0%; Mean Inhib (%) (kinases [27]; [31]): 6.2%; Mean Inhib (%) (kinases [27]; [32]): −1.9%; Mean Inhib (%) (kinases [27]; [33]): 17.2%; Mean Inhib (%) (kinases [28]): 14.4%
Cc1cc(Oc2ccnc(Nc3ccc(S(N)(=O)=O)cc3)c2)c(-c2ccccn2)nc1C [compound 65] | 1.6% | 12.0% | 67.0% | 5.3% | 19.9% | −4.5% | 8.2% | 10.7% | 1.0% | −2.0% | 3.4% | 9.4% | 7.6% | 1.6% | 6.6% | −6.4% | −2.4% | −1.3% | 1.6% | 5.5% | Mean Inhib (%) (kinases [20]; [30]): 1.1%; Mean Inhib (%) (kinases [21]): 32.3%; Mean Inhib (%) (kinases [22]): 9.6%; Mean Inhib (%) (kinases [23]): 77.2%; Mean Inhib (%) (kinases [24]): 39.3%; Mean Inhib (%) (kinases [25]): −6.9%; Mean Inhib (%) (kinases [26]): −7.6%; Mean Inhib (%) (kinases [27]; [31]): 6.9%; Mean Inhib (%) (kinases [27]; [32]): 2.6%; Mean Inhib (%) (kinases [27]; [33]): 6.2%; Mean Inhib (%) (kinases [28]): 5.4%
